{"source": "patent US20220267754A1", "about": "“VECTOR-BASED MUTAGENESIS SYSTEM” (priority 2015, published 2022)", "key": {"E. coli": {"system": "E. coli", "conditions": "tabulated from Antimicrobial Index Knowledgebase; cited from earlier work"}, "[1]": {"system": "E. coli MG1655 ΔrecA::apra", "assay_type": "cell-based"}}, "data": [{"smiles": "CO/N=C(\\C(=O)N[C@@H]1C(=O)N2C(C(=O)O)=C(COC(C)=O)CS[C@H]12)c1csc(N)n1", "note": "[cefotaxime]", "values": [{"measurement": "MIC", "setting": "E. coli", "result": "0.016 to 0.25", "unit": "µg/mL"}]}, {"smiles": "CC1(C)S[C@@H]2[C@H](NC(=O)C(C(=O)O)c3ccccc3)C(=O)N2[C@H]1C(=O)O", "note": "(some centres unmarked) [carbenicillin]", "values": [{"measurement": "MIC", "setting": "E. coli", "result": "2 to 25", "unit": "µg/mL"}]}, {"smiles": "CCOS(C)(=O)=O", "note": "[EMS, ethyl methanesulfonate]", "values": [{"measurement": "fraction of cells resistant, CRB", "setting": "[1]", "result": "0.00E+00"}, {"measurement": "fraction of cells resistant, CTX", "setting": "[1]", "result": "1.67E−07"}, {"measurement": "fraction of cells resistant, FOS", "setting": "[1]", "result": "3.75E−04"}, {"measurement": "fraction of cells resistant, KAN", "setting": "[1]", "result": "8.17E−04"}, {"measurement": "fraction of cells resistant, MIX", "setting": "[1]", "result": "1.10E−04"}, {"measurement": "fraction of cells resistant, RIF", "setting": "[1]", "result": "6.68E−05"}, {"measurement": "fraction of cells resistant, SPC", "setting": "[1]", "result": "0.00E+00"}, {"measurement": "fraction of cells resistant, STR", "setting": "[1]", "result": "1.33E−06"}, {"measurement": "fraction of cells resistant, TET", "setting": "[1]", "result": "0.00E+00"}]}, {"smiles": "CO[C@H]1/C=C/O[C@@]2(C)Oc3c(C)c(O)c4c(O)c(c(/C=N/N5CCN(C)CC5)c(O)c4c3C2=O)NC(=O)/C(C)=C\\C=C\\[C@H](C)[C@H](O)[C@@H](C)[C@@H](O)[C@@H](C)[C@H](OC(C)=O)[C@@H]1C", "note": "[rifampin]", "values": [{"measurement": "MIC", "setting": "E. coli", "result": "0.5 to 16", "unit": "µg/mL"}]}, {"smiles": "CN[C@@H]1[C@H](O)[C@H](NC)[C@H]2O[C@@]3(O)C(=O)C[C@@H](C)O[C@H]3O[C@@H]2[C@H]1O", "note": "[spectinomycin]", "values": [{"measurement": "MIC", "setting": "E. coli", "result": "8 to 64", "unit": "µg/mL"}]}, {"smiles": "CCn1cc(C(=O)O)c(=O)c2cc(F)c(N3CCNCC3)cc21", "note": "[norfloxacin]", "values": [{"measurement": "MIC", "setting": "E. coli", "result": "0.016 to 0.125", "unit": "µg/mL"}]}, {"smiles": "Cc1ncc([N+](=O)[O-])n1CCO", "note": "[metronidazole]", "values": [{"measurement": "MIC", "setting": "E. coli", "result": "8 to 32", "unit": "µg/mL"}]}, {"smiles": "C[C@@H]1O[C@@H]1P(=O)(O)O", "note": "[fosfomycin]", "values": [{"measurement": "MIC", "setting": "E. coli", "result": "0.125 to 8", "unit": "µg/mL"}]}, {"smiles": "Nc1ncc2[nH]cnc2n1", "note": "[2AP, 2-aminopurine]", "values": [{"measurement": "fraction of cells resistant, CRB", "setting": "[1]", "result": "1.17E−07"}, {"measurement": "fraction of cells resistant, CTX", "setting": "[1]", "result": "2.80E−06"}, {"measurement": "fraction of cells resistant, FOS", "setting": "[1]", "result": "4.83E−04"}, {"measurement": "fraction of cells resistant, KAN", "setting": "[1]", "result": "1.53E−03"}, {"measurement": "fraction of cells resistant, MIX", "setting": "[1]", "result": "2.03E−05"}, {"measurement": "fraction of cells resistant, RIF", "setting": "[1]", "result": "1.03E−05"}, {"measurement": "fraction of cells resistant, SPC", "setting": "[1]", "result": "2.50E−07"}, {"measurement": "fraction of cells resistant, STR", "setting": "[1]", "result": "3.17E−07"}, {"measurement": "fraction of cells resistant, TET", "setting": "[1]", "result": "0.00E+00"}]}, {"smiles": "[H]/N=C(/N)N[C@H]1[C@H](O)[C@@H](O)[C@H](O[C@@H]2O[C@@H](C)[C@](O)(C=O)[C@H]2O[C@@H]2O[C@@H](CO)[C@H](O)[C@@H](O)[C@@H]2NC)[C@@H](N/C(N)=N\\[H])[C@@H]1O", "note": "[streptomycin]", "values": [{"measurement": "MIC", "setting": "E. coli", "result": "1 to 16", "unit": "µg/mL"}]}]}
